In patent US10988523B2, “Modified lipidated Relaxin B chain peptides and their therapeutic use” (Sanofi, priority 2018, dated 2021):
*1 amine or outer side, *2 acyl side, *3 side chain or, on linkers, in order; H or OH if unused. Where a SMILES comes first, the peptide text is derived from it. Side-chain parts run from the residue outwards. [ ]: non-standard residue; d: D form. The star is where a group is joined. γGlu = O=C(O)[C@H](CCC(=O)[*:2])N[*:1]; Stearoyl = CCCCCCCCCCCCCCCCCC(=O)*; Palmitoyl = CCCCCCCCCCCCCCCC(=O)*; Nle = CCCC[C@H](N)C(=O)O; AEEA = NCCOCCOCC(=O)O; Aib = CC(C)(N)C(=O)O

Target: T1, RXFP1 (Homo sapiens, UniProt Q9HBX9)
T1 construct: OVCAR5 cells expressing endogenous RXFP1; endogenous in cells; host or cells: OVCAR5 cells
T1 sequence (Q9HBX9 1-757): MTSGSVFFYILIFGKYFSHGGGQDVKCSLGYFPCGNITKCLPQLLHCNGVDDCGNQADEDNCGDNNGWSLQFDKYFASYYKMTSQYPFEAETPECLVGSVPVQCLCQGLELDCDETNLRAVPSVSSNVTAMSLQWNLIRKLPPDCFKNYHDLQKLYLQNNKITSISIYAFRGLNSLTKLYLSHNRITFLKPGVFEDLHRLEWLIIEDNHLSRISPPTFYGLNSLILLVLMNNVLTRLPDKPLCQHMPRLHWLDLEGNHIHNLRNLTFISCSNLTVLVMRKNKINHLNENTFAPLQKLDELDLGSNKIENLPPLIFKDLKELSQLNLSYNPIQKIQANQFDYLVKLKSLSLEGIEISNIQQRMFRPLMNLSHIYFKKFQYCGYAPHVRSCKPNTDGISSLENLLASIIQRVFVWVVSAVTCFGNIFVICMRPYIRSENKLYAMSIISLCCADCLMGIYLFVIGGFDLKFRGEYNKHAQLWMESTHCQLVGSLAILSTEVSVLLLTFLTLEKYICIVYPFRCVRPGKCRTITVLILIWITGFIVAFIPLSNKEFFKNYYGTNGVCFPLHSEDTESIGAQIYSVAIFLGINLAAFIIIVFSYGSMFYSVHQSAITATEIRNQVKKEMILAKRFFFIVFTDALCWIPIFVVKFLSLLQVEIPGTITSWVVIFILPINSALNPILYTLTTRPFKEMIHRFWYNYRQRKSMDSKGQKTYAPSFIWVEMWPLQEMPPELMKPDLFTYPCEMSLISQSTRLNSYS
Test: OVCAR5 cAMP assay (HTRF), RXFP1 agonist activity
Type: cell-based
Details: for Emax: OVCAR-5, maximal cAMP relative to H2-relaxin maximum (100%), read-out: EMax, OVCAR 5 cells (cAMP); for EC50: OVCAR5 cells, cAMP HTRF, read-out: EC50 (nM), OVCAR 5 cells (cAMP)
Text: OVCAR5 cells expressing endogenous RXFP1 were used to test RXP1 agonist properties of peptides of the invention, and in particular of the peptides of sequence SEQ ID NO: 1-193.
Since RXFP1 is a Gs coupled GPCR, cAMP was used as readout of RXFP1 activation.
Isobutyl Methyl Xanthine (IBMX) was used to inhibit phosphodiesterase activity facilitating cAMP measurements. HTRF (Homogenous Time Resolved Fluorescence) technology was used to detect cAMP due to its great sensitivity.
In summary, OVCAR5 were grown in regular medium (RPMI) containing 10% fetal calf serum (FCS) and 1% antibiotics (penicillin/streptomycin).
Before the experiments, cells were detached with accutase and incubated for 40 minutes at 37° C. with 1 mM (3-isobutyl-1-methylxanthine) IBMX.
Cells were then distributed in 384 black well plates containing increasing concentrations of the different peptides in a fix volume of medium (without FCS).
After an incubation of 30 min at 37° C. in an humid incubator in 5% CO2, the reaction was stopped by adding a fixed volume of a solution containing a lysis buffer and cAMP-D2 (cAMP labeled with the dye d2) and the anti cAMP antibody linked to Europium and used for cAMP detection.
Readout of the experiment were performed on a fluorimeter allowing HTRF measurement. Activation curves were generated by plotting the intracellular value of cAMP versus log 10 of the compound concentration.
The 50% activation concentration (EC50) was calculated by nonlinear regression using the sigmoidal dose-response (variable slope) equation with Prism 5 software.
Emax % is determined as the maximal intracellular value of cAMP for test compound (upper limit of cAMP vs concentration curve) divided by the maximal intracellular value of cAMP for H2-relaxin determined in the same test occasion multiplied by 100. Emax %=100×[cAMPtest cpd]/[cAMPH2-RlX]

SMILES | Emax | EC50
CCCCCCCCCCCCCCCC(=O)N[C@@H](CCC(=O)N[C@@H](CCC(=O)N[C@@H](CCC(=O)NCCCC[C@H](NC(=O)COCCOCCNC(=O)COCCOCCNC(=O)COCCOCCNC(=O)COCCOCCNC(=O)[C@H](CCCCNC(C)=O)NC(=O)[C@H](CCCCN)NC(=O)[C@H](CCCNC(=N)N)NC(=O)C(C)(C)NC(=O)[C@H](CO)NC(=O)[C@H](Cc1ccccc1)NC(=O)[C@@H](NC(=O)[C@H](CO)NC(=O)[C@H](CCCC)NC(=O)CNC(=O)[C@H](CCC(=O)O)NC(=O)C(C)(C)NC(=O)C(C)(C)NC(=O)[C@@H](NC(=O)[C@H](CCCCNC(C)=O)NC(=O)[C@H](C)NC(=O)[C@H](CCCNC(=N)N)NC(=O)[C@@H](NC(=O)[C@H](CCCCN)NC(=O)[C@H](CCC(=O)O)NC(=O)[C@H](CCCNC(=N)N)NC(=O)CNC(=O)[C@H](CCC(=O)O)NC(=O)[C@H](CC(C)C)NC(C)=O)C(C)C)[C@@H](C)CC)[C@@H](C)O)C(N)=O)C(=O)O)C(=O)O)C(=O)O [compound 144] (Ac-LEGREKVRAK(Ac)I[Aib][Aib]EG[Nle]STFS[Aib]RKK(Ac)[AEEA][AEEA][AEEA][AEEA]K([γGlu-γGlu-γGlu-Palmitoyl])-NH2) | 94% | 
CCCCCCCCCCCCCCCCCC(=O)N[C@@H](CCC(=O)N[C@@H](CCC(=O)N[C@@H](CCC(=O)N[C@@H](CCC(=O)NCCCC[C@H](NC(=O)COCCOCCNC(=O)COCCOCCNC(=O)COCCOCCNC(=O)COCCOCCNC(=O)[C@H](CCCCN)NC(=O)[C@H](CCCCN)NC(=O)[C@H](CCCNC(=N)N)NC(=O)C(C)(C)NC(=O)[C@H](CO)NC(=O)[C@H](Cc1c[nH]c2ccccc12)NC(=O)[C@@H](NC(=O)[C@H](CO)NC(=O)[C@H](CCCC)NC(=O)CNC(=O)[C@H](CCC(=O)O)NC(=O)C(C)(C)NC(=O)C(C)(C)NC(=O)[C@@H](NC(=O)[C@H](CCCCNC(C)=O)NC(=O)[C@H](C)NC(=O)[C@H](CCCNC(=N)N)NC(=O)[C@@H](NC(=O)[C@H](CCCCN)NC(=O)[C@H](CCC(=O)O)NC(=O)[C@H](CCCNC(=N)N)NC(=O)CNC(=O)[C@H](CCC(=O)O)NC(=O)[C@H](CC(C)C)NC(C)=O)C(C)C)[C@@H](C)CC)[C@@H](C)O)C(N)=O)C(=O)O)C(=O)O)C(=O)O)C(=O)O [compound 15] (Ac-LEGREKVRAK(Ac)I[Aib][Aib]EG[Nle]STWS[Aib]RKK[AEEA][AEEA][AEEA][AEEA]K([γGlu-γGlu-γGlu-γGlu-Stearoyl])-NH2) | 92% | 0.32 nM
CCCCCCCCCCCCCCCCCC(=O)N[C@@H](CCC(=O)N[C@@H](CCC(=O)N[C@@H](CCC(=O)NCCOCCOCC(=O)NCCOCCOCC(=O)NCCOCCOCC(=O)NCCOCCOCC(=O)NCCOCCOCC(=O)NCCCC[C@H](NC(=O)[C@H](CCCCN)NC(=O)[C@H](CCCCN)NC(=O)[C@H](CCCNC(=N)N)NC(=O)C(C)(C)NC(=O)[C@H](CO)NC(=O)[C@H](Cc1c[nH]c2ccccc12)NC(=O)[C@@H](NC(=O)[C@H](CO)NC(=O)[C@H](CCCC)NC(=O)CNC(=O)[C@H](CCC(=O)O)NC(=O)C(C)(C)NC(=O)C(C)(C)NC(=O)[C@@H](NC(=O)[C@H](CCC(N)=O)NC(=O)[C@H](C)NC(=O)[C@H](CCCNC(=N)N)NC(=O)[C@@H](NC(=O)[C@H](CCCCN)NC(=O)[C@H](CCC(=O)O)NC(=O)[C@H](CCCNC(=N)N)NC(=O)CNC(=O)[C@H](CCC(=O)O)NC(=O)[C@H](CC(C)C)NC(C)=O)C(C)C)[C@@H](C)CC)[C@@H](C)O)C(N)=O)C(=O)O)C(=O)O)C(=O)O [compound 93] (Ac-LEGREKVRAQI[Aib][Aib]EG[Nle]STWS[Aib]RKKK([AEEA-AEEA-AEEA-AEEA-AEEA-γGlu-γGlu-γGlu-Stearoyl])-NH2) | 87% | 0.14 nM
CCCCCCCCCCCCCCCC(=O)N[C@@H](CCC(=O)NCCCC[C@H](NC(=O)CC[C@H](NC(=O)CC[C@H](NC(=O)COCCOCCNC(=O)COCCOCCNC(=O)COCCOCCNC(=O)[C@H](CCCCNC(C)=O)NC(=O)[C@H](CCCCN)NC(=O)[C@H](CCCNC(=N)N)NC(=O)C(C)(C)NC(=O)[C@H](CO)NC(=O)[C@H](Cc1c[nH]c2ccccc12)NC(=O)[C@@H](NC(=O)[C@H](CO)NC(=O)[C@H](CCCC)NC(=O)CNC(=O)[C@H](CCC(=O)O)NC(=O)C(C)(C)NC(=O)C(C)(C)NC(=O)[C@@H](NC(=O)[C@H](CCCCNC(C)=O)NC(=O)[C@H](C)NC(=O)[C@H](CCCNC(=N)N)NC(=O)[C@@H](NC(=O)[C@H](CCCCN)NC(=O)[C@H](CCC(=O)O)NC(=O)[C@H](CCCNC(=N)N)NC(=O)CNC(=O)[C@H](CCC(=O)O)NC(=O)[C@H](CC(C)C)NC(C)=O)C(C)C)[C@@H](C)CC)[C@@H](C)O)C(=O)O)C(=O)O)C(N)=O)C(=O)O [compound 117] (Ac-LEGREKVRAK(Ac)I[Aib][Aib]EG[Nle]STWS[Aib]RKK(Ac)[AEEA][AEEA][AEEA][γGlu][γGlu]K([γGlu-Palmitoyl])-NH2) | 86% | 
CCCCCCCCCCCCCCCCCC(=O)N[C@@H](CCC(=O)N[C@@H](CCC(=O)N[C@@H](CCC(=O)NCCOCCOCC(=O)NCCOCCOCC(=O)NCCCC[C@H](NC(=O)[C@H](CCCCN)NC(=O)[C@H](CCCCN)NC(=O)[C@H](CCCNC(=N)N)NC(=O)C(C)(C)NC(=O)[C@H](CO)NC(=O)[C@H](Cc1c[nH]c2ccccc12)NC(=O)[C@@H](NC(=O)[C@H](CO)NC(=O)[C@H](CCCC)NC(=O)CNC(=O)[C@H](CCC(=O)O)NC(=O)C(C)(C)NC(=O)C(C)(C)NC(=O)[C@@H](NC(=O)[C@H](CCC(N)=O)NC(=O)[C@H](C)NC(=O)[C@H](CCCNC(=N)N)NC(=O)[C@@H](NC(=O)[C@H](CCCCN)NC(=O)[C@H](CCC(=O)O)NC(=O)[C@H](CCCNC(=N)N)NC(=O)CNC(=O)[C@H](CCC(=O)O)NC(=O)[C@H](CC(C)C)NC(C)=O)C(C)C)[C@@H](C)CC)[C@@H](C)O)C(N)=O)C(=O)O)C(=O)O)C(=O)O [compound 71] (Ac-LEGREKVRAQI[Aib][Aib]EG[Nle]STWS[Aib]RKKK([AEEA-AEEA-γGlu-γGlu-γGlu-Stearoyl])-NH2) | 87% | 
CCCCCCCCCCCCCCCC(=O)N[C@@H](CCC(=O)NCCCC[C@H](NC(=O)[C@H](CCCCN)NC(=O)[C@H](CCCNC(=N)N)NC(=O)C(C)(C)NC(=O)[C@H](CO)NC(=O)[C@H](Cc1c[nH]c2ccccc12)NC(=O)[C@@H](NC(=O)[C@H](CO)NC(=O)[C@H](CCCC)NC(=O)CNC(=O)[C@H](CCC(=O)O)NC(=O)C(C)(C)NC(=O)C(C)(C)NC(=O)[C@@H](NC(=O)[C@H](CCC(N)=O)NC(=O)[C@H](C)NC(=O)[C@H](CCCNC(=N)N)NC(=O)[C@@H](NC(=O)[C@H](CCCCN)NC(=O)[C@H](CCC(=O)O)NC(=O)[C@H](CCCNC(=N)N)NC(=O)CNC(=O)[C@H](CCC(=O)O)NC(=O)[C@H](CC(C)C)NC(C)=O)C(C)C)[C@@H](C)CC)[C@@H](C)O)C(N)=O)C(=O)O [compound 2] (Ac-LEGREKVRAQI[Aib][Aib]EG[Nle]STWS[Aib]RKK([γGlu-Palmitoyl])-NH2) | 100% | 
